Earlier results on 1 compound are cited in patent publication US20180243418A1, “SYSTEMS AND METHODS FOR TARGETED CANCER THERAPIES” (American University of Sharjah, priority 2017, published 2018).

One data set has as its system VX2 carcinoma cells. Conditions: rabbits implanted with VX2 carcinoma cells, intravenous.
Data set [1] has as its system human and mice melanoma cells. The conditions noted are these: melanoma cells treated for about 8 hours.

Take `COc1cccc2c1C(=O)c1c(O)c3c(c(O)c1C2=O)C[C@@](O)(C(=O)CO)C[C@@H]3O[C@H]1C[C@H](N)[C@H](O)[C@H](C)O1` [free Dox, doxorubicin]: the “concentration of Dox in tumors” value with VX2 carcinoma cells is “about 4.0±1.0 μg Dox/g tissues”. Besides, in data set [1], the “accumulation in the nucleus, of the initial amount” value is recorded as “about 26%” and the “initial concentration detected in the cell cytoplasm” value is reported as “about 0.5%”.
